Experimental data from patent publication US12053523B2, “Compositions comprising chemotherapeutic agents and checkpoint inhibitors and methods of use” (NORTH CAROLINA STATE UNIVERSITY, priority 2017, dated 2024).
“Also recorded” adds a separate entry of the source. Counter-ions that a name gives are not always drawn.

Tests used:
[1] = GEM and aPDL1 release from PVA-TSPBA hydrogels; type: physicochemical; settings: 37° C.
Protocol: FIGS. 1A, 1B, 1C, 1D, 1E, and 1F show a schematic and characterization of in situ formed reactive oxygen species (ROS)-responsive PVA-TSPBA scaffold. […] Scale bar, 0.5 μm. Inset: a zoom-in image of the scaffold. Scale bar, 0.1 μm. […] Scale bar, 25 μm. […] FIGS. 1E and IF show cumulative release profiles of GEM (1e) and aPDL1 (1f) from hydrogels when incubated with PBS with or without H2O2 (1 mM).
The TSPBA can be oxidized and hydrolyzed when exposed to H2O2 in the TME, leading to the dissociation of the polymeric scaffold and the release of PVA and payloads. To verify the ROS-sensitive degradability of the hydrogels, samples were immersed in phosphate-buffered saline (PBS) containing […] H2O2 at 37° C. […] The release profiles of GEM and aPD-L1 were quantified using high-performance liquid chromatography (HPLC) and enzyme-linked immunosorbent assay (ELISA), respectively. […] The release pattern was further examined in vivo after the intratumor injection of the drug-loaded scaffolds in the B16F10 mouse model. […] These distinct release dynamics facilitated the delivery of GEM and aPD-L1 into the TME for the intended sequential effects.
Release studies were performed at 37° C. with constant agitation in PBS. […] The released GEM was analyzed by HPLC and the antibody release was determined by Rat IgG total ELISA kit (eBioscience).

B16F10 cancer cells = test: Treatment of B16F10 cancer cells in vitro with GEM (flow cytometry, immunofluorescence, western blot); type: cell-based, mouse
Protocol: FIGS. 7A and 7B show the effects of GEM to cancer cells in vitro.
Circulating type 1 T helper (Th1) cytokines were also measured before and after GEM@Gel implantation (FIG. 6g).
(§1) The mouse melanoma cell line B16F10 and mouse mammary carcinoma cell line 4T1 were purchased from the American Type Culture Collection. B16F10-luc-GFP and 4T1-luc-GFP cells were gifts from Dr. Leaf Huang at the University of North Carolina at Chapel Hill. B16F10 cells were maintained in Dulbecco's Modified Eagle Medium (Gibco, Invitrogen) supplemented with 10% fetal bovine serum (Invitrogen, Carlsbad, CA), 100 U/mL penicillin (Invitrogen), and 100 […] (Invitrogen). 4T1 cells were maintained in RPMI-1640 Medium (Gibco, Invitrogen) supplemented with 10% fetal bovine serum (Invitrogen, Carlsbad, CA), 100 U/mL penicillin (Invitrogen), and 100 […] (Invitrogen). Master and working cell banks were generated immediately upon receipt. The third and fourth passages were used for the experiments. Cells were tested every three months to exclude the presence of mycoplasma. Authentication of cells was not performed after receipt.

4T1 cancer cells = test: Effects of GEM in 4T1 cells in vitro (PD-L1 by flow cytometry); type: cell-based, mouse; settings: GEM 0, 1, 2, 5, 10 μM for 48 hours, remaining live cells; hydrochloride
Protocol: The data are shown as mean±SD. Error bars are based on at least triplicate measurements. P value: *, P<0.05.
4T1 cells were reported to express low levels of PD-L1. […] For in vivo study, 4T1 were inoculated subcutaneously into the right flank of female BABL/c mice. After 7 days, the mice bearing 4T1 tumors were treated with GEM@Gel (200 μL, 10% w/w) (GEM: 5 mg/kg), aPD-L1@Gel (aPDL1: 50 μg per mouse) or GEM-aPD-L1@Gel (aPD-L1: 50 μg per mouse, GEM: 5 mg/kg).
as §1, with “Authentication of cells was not performed after receipt.” left out

Release from the hydrogel in H2O2 solution compared to control PBS ([1]; H2O2 1 mM vs PBS): in a triggered manner
Structure (SMILES): Nc1ccn([C@@H]2O[C@H](CO)[C@@H](O)C2(F)F)c(=O)n1 [GEM, Gemcitabine hydrochloride]
Release of GEM from the hydrogel ([1]; H2O2 solution (1 mM) in PBS, HPLC): great majority of GEM was released within one day
PD-L1 on surviving B16F10 cells (B16F10 cancer cells; GEM 5 μM, within 24 hours): significant PD-L1 upregulation
Dose and time dependence of PD-L1 expression on B16F10 cancer cells (B16F10 cancer cells; flow cytometry, immunofluorescence, western blot): GEM-dose- and time-dependent
Cell death of B16F10 cancer cells (B16F10 cancer cells; in vitro): resulted in cell death
Expression of PD-L1 in surviving B16F10 cells (B16F10 cancer cells; in vitro): increased expression of PD-L1
PD-L1 expression in 4T1 cancer cells (4T1 cancer cells): induced PD-L1 expression; also recorded: PD-L1 upregulation
